From patent publication US20090099167A1, “Organic compounds” (Novartis Institutes for Biomedical Research, priority 2004, published 2009)

Molecular target: T1, human VEGF-R2 receptor (KDR) (Homo sapiens, UniProt P35968)
T1 construct: expressed in transfected cells; host or cells: CHO cells
Experiment: VEGF-induced KDR autophosphorylation in transfected CHO cells, sandwich ELISA
Format: cell-based
Settings: Table 5; read-out: KDR, IC50 class
Method: The compounds to be tested are then diluted in culture medium (without FCS, with 0.1% bovine serum albumin) and added to the cells. (Controls comprise medium without test compounds). After two hours' incubation at 37° C., recombinant VEGF is added; the final VEGF concentration is 20 ng/ml). After a further five minutes incubation at 37° C., the cells are washed twice with ice-cold PBS (phosphate-buffered saline) and immediately lysed in 100 μl lysis buffer per well. The lysates are then centrifuged to remove the cell nuclei, and the protein concentrations of the supernatants are determined using a commercial protein assay (BIORAD). The lysates can then either be immediately used or, if necessary, stored at −20° C. A sandwich ELISA is carried out to measure the VEGF-R2 phosphorylation: a monoclonal antibody to VEGF-R2 (for example Mab 1495.12.14; ProQinase, Freiburg, Germany) is immobilized on black ELISA plates (OptiPlate™ HTRF-96 from Packard). The plates are then washed and the remaining free protein-binding sites are saturated with 3% TopBlock® (Juro, Cat. # TB232010) in phosphate buffered saline with Tween 20® (polyoxyethylen(20)-sorbitane monolaurate, ICI/Uniquema) (PBST). The cell lysates (20 μg protein per well) are then incubated in these plates overnight at 4° C. together with an antiphosphotyrosine antibody coupled with alkaline phosphatase (PY20:AP from Zymed). […] The luminescence is measured in a Packard Top Count Microplate Scintillation Counter. The difference between the signal of the positive control (stimulated with VEGF) and that of the negative control (not stimulated with VEGF) corresponds to VEGF-induced VEGF-R2 phosphorylation (=100%). The activity of the tested substances is calculated as percent inhibition of VEGF-induced VEGF-R2 phosphorylation, wherein the concentration of substance that induces half the maximum inhibition is defined as the IC50 (inhibitory dose for 50% inhibition). […] Flt3 kinase inhibition is determined as follows: The baculovirus donor vector pFbacG01 (GIBCO) is used to generate a recombinant baculovirus expressing the amino acid region amino acids 563-993 of the cytoplasmic kinase domain of human Flt-3. The coding sequence for the cytoplasmic domain of Flt-3 is amplified by PCR from human c-DNA libraries (Clontech). The amplified DNA fragments and the pFbacG01 vector are made compatible for ligation by digestion with BamH1 and HindIII. Ligation of these DNA fragments results in the baculovirus donor plasmid Flt-3(1.1). The production of the viruses, the expression of proteins in Sf9 cells and the purification of the GST-fused proteins are performed as follows: Production of virus: Transfer vector (pFbacG01-Flt-3) containing the Flt-3 kinase domain is transfected into the DH10Bac cell line (GIBCO) and the transfected cells are plated on selective agar plates. Colonies without insertion of the fusion sequence into the viral genome (carried by the bacteria) are blue. Single white colonies are picked and viral DNA (bacmid) is isolated from the bacteria by standard plasmid purification procedures. Sf9 or Sf21 cells (American Type Culture Collection) are then transfected in flasks with the viral DNA using Cellfectin reagent. Determination of small scale protein expression in Sf9 cells: Virus containing media is collected from the transfected cell culture and used for infection to increase its titre. Virus containing media obtained after two rounds of infection is used for large-scale protein expression. For large-scale protein expression 100 cm^2 round tissue culture plates are seeded with 5×10^7 cells/plate and infected with 1 mL of virus-containing media (approx. 5 MOIs). After 3 days the cells are scraped off the plate and centrifuged at 500 rpm for 5 min. Cell pellets from 10-20, 100 cm^2 plates, are resuspended in 50 mL of ice-cold lysis buffer (25 mMTris-HCl, pH 7.5, 2 mM EDTA, 1% NP-40, 1 mM DTT, 1 mM PMSF). The cells are stirred on ice for 15 min and then centrifuged at 5000 rpms for 20 min. […]

T1 sequence (P35968 20-1356): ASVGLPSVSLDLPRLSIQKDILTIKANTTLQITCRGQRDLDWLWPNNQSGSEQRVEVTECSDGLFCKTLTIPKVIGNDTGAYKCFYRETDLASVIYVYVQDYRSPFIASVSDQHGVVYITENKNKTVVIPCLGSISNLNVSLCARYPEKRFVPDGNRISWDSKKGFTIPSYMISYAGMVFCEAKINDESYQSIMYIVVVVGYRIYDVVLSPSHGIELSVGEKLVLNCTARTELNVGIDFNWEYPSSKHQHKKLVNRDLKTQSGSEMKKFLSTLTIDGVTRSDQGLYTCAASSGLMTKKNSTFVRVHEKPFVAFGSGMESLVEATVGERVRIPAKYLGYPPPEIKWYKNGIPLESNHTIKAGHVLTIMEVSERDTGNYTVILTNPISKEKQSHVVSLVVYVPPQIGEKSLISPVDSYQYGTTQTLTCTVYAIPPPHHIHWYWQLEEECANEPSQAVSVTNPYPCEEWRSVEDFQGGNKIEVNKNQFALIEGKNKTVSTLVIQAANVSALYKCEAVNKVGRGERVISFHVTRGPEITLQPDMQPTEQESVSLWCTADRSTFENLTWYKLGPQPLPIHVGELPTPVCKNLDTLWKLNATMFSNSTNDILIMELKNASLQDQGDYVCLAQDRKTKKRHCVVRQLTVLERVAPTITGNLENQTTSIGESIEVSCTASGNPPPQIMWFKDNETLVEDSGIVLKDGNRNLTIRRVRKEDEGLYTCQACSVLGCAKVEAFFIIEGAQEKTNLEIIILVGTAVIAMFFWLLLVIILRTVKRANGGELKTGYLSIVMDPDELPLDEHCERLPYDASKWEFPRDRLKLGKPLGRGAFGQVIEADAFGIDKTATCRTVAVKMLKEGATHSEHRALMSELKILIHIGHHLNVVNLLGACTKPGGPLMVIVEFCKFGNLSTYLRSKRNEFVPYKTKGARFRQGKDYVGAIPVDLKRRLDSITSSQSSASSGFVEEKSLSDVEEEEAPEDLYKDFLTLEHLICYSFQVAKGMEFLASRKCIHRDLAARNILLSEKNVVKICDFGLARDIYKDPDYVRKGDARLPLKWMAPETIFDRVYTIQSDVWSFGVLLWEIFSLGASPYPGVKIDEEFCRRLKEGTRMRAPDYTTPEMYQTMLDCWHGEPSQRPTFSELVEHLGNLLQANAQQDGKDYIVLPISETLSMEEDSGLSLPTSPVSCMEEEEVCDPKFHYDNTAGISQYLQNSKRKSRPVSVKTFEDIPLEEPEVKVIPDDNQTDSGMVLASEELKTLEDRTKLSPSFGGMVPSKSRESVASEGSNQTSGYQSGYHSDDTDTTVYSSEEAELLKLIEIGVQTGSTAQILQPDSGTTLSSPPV

| IC50 [µM] | SMILES |
| --- | --- |
| 1 to 10 | Cc1nc2c(-c3cccc(N4CCOCC4)c3)cnn2c(N)c1-c1cccc(Cl)c1 [Example 87, 6-(3-Chloro-phenyl)-5-methyl-3-(3-morpholin-4-yl-phenyl)-pyrazolo[1,5-a]pyrimidin-7-ylamine] |
| 1 to 10 | COc1ccc(-c2cnn3c(N)c(-c4cccc(Cl)c4)c(C)nc23)cc1 [Example 88, 6-(3-Chloro-phenyl)-3-(4-methoxy-phenyl)-5-methyl-pyrazolo[1,5-a]pyrimidin-7-ylamine] |
| 1 to 10 | Cc1nc2c(-c3cccc(N4C[C@@H](C)O[C@@H](C)C4)c3)cnn2c(N)c1-c1cccc(Cl)c1 [Example 89, 6-(3-Chloro-phenyl)-3-[3-((2R,6S)-2,6-dimethyl-morpholin-4-yl)-phenyl]-5-methyl-pyrazolo[1,5-a]pyrimidin-7-ylamine] |
| 1 to 10 | Cc1nc2c(-c3cccc(N4CCN(CCO)CC4)c3)cnn2c(N)c1-c1cccc(Cl)c1 [Example 90, 2-(4-{3-[7-Amino-6-(3-chloro-phenyl)-5-methyl-pyrazolo[1,5-a]pyrimidin-3-yl]-phenyl}-piperazin-1-yl)-ethanol] |
| 1 to 10 | CN1CCN(c2cccc(-c3cnn4c(N)c(Cc5ccccc5)cnc34)c2)CC1 [Example 91, 6-Benzyl-3-[3-(4-methyl-piperazin-1-yl)-phenyl]-pyrazolo[1,5-a]pyrimidin-7-ylamine] |
| 1 to 10 | COc1ccc(-c2cnn3c(N)c(-c4cccc(Cl)c4)c(CF)nc23)cc1OC [Example 92, 6-(3-Chloro-phenyl)-3-(3,4-dimethoxy-phenyl)-5-fluoromethyl-pyrazolo[1,5-a]pyrimidin-7-ylamine] |
| > 10 | COc1ccc(-c2cnn3c(N)c(-c4cccc(Cl)c4)c(C)nc23)cc1OC [Example 93, 6-(3-Chloro-phenyl)-3-(3,4-dimethoxy-phenyl)-5-methyl-pyrazolo[1,5-a]pyrimidin-7-ylamine] |
| > 10 | COc1ccc(-c2cnn3c(N)c(-c4ccc(F)c(Cl)c4)c(C)nc23)cc1OC [Example 94, 6-(3-Chloro-4-fluoro-phenyl)-3-(3,4-dimethoxy-phenyl)-5-methyl-pyrazolo[1,5-a]pyrimidin-7-ylamine] |
| > 10 | COc1ccc(-c2cnn3c(N)c(-c4ccc(F)c(Cl)c4)c(C)nc23)cc1 [Example 95, 6-(3-Chloro-4-fluoro-phenyl)-3-(4-methoxy-phenyl)-5-methyl-pyrazolo[1,5-a]pyrimidin-7-ylamine] |
| > 10 | COc1ccc(-c2cnn3c(N)c(-c4ccc(F)cc4)c(C)nc23)cc1 [Example 96, 6-(4-Fluoro-phenyl)-3-(4-methoxy-phenyl)-5-methyl-pyrazolo[1,5-a]pyrimidin-7-ylamine] |
| 1 to 10 | Cc1nc2c(-c3cccc(N4CCN(CCO)CC4)c3)cnn2c(N)c1-c1ccc(F)cc1 [Example 97, 2-(4-{3-[7-Amino-6-(4-fluoro-phenyl)-5-methyl-pyrazolo[1,5-a]pyrimidin-3-yl]-phenyl}-piperazin-1-yl)-ethanol] |
| > 10 | Cc1nc2c(-c3cccc(N4CCN(C)CC4)c3)cnn2c(N)c1-c1ccc(F)c(F)c1 [Example 98, 6-(3,4-Difluoro-phenyl)-5-methyl-3-[3-(4-methyl-piperazin-1-yl)-phenyl]-pyrazolo[1,5-a]pyrimidin-7-ylamine] |
| > 10 | COc1ccc(-c2cnn3c(N)c(-c4ccc(F)c(F)c4)c(C)nc23)cc1OC [Example 99, 6-(3,4-Difluoro-phenyl)-3-(3,4-dimethoxy-phenyl)-5-methyl-pyrazolo[1,5-a]pyrimidin-7-ylamine] |

Continued, compound first:

| SMILES | IC50 [µM] |
| --- | --- |
| Cc1nc2c(-c3cccc(N4CCN(C)CC4)c3)cnn2c(N)c1-c1cccc(Cl)c1 [Example 72, 6-(3-Chloro-phenyl)-5-methyl-3-[3-(4-methyl-piperazin-1-yl)-phenyl]-pyrazolo[1,5-a]pyrimidin-7-ylamine] | < 1 |
| Cc1nc2c(-c3ccc(N4CCN(C)CC4)cc3)cnn2c(N)c1-c1cccc(Cl)c1 [Example 73, 6-(3-Chloro-phenyl)-5-methyl-3-[4-(4-methyl-piperazin-1-yl)-phenyl]-pyrazolo[1,5-a]pyrimidin-7-ylamine] | < 1 |
| COc1cc(N2CCN(C)CC2)ccc1-c1cnn2c(N)c(-c3cccc(Cl)c3)c(C)nc12 [Example 75, 6-(3-Chloro-phenyl)-3-[2-methoxy-4-(4-methyl-piperazin-1-yl)-phenyl]-5-methyl-pyrazolo[1,5-a]pyrimidin-7-ylamine] | 1 to 10 |
| COc1cc(N2CCN(C)CC2)ccc1-c1cnn2c(N)c(-c3cccc(O)c3)cnc12 [Example 76, 3-{7-Amino-3-[2-methoxy-4-(4-methyl-piperazin-1-yl)-phenyl]-pyrazolo[1,5-a]pyrimidin-6-yl}-phenol] | < 1 |
| CN1CCN(c2ccc(-c3cnn4c(N)c(-c5ccccc5Cl)cnc34)cc2)CC1 [Example 77, 6-(2-Chloro-phenyl)-3-[4-(4-methyl-piperazin-1-yl)-phenyl]-pyrazolo[1,5-a]pyrimidin-7-ylamine] | < 1 |
| CN1CCN(c2cccc(-c3cnn4c(N)c(-c5ccccc5Cl)cnc34)c2)CC1 [Example 78, 6-(2-Chloro-phenyl)-3-[3-(4-methyl-piperazin-1-yl)-phenyl]-pyrazolo[1,5-a]pyrimidin-7-ylamine] | < 1 |
| Cc1nc2c(-c3ccc(N4CCN(C)CC4)cc3)cnn2c(N)c1-c1ccc(F)cc1 [Example 79, 6-(4-Fluoro-phenyl)-5-methyl-3-[4-(4-methyl-piperazin-1-yl)-phenyl]-pyrazolo[1,5-a]pyrimidin-7-ylamine] | 1 to 10 |
| Cc1nc2c(-c3cccc(N4CCN(C)CC4)c3)cnn2c(N)c1-c1ccc(F)cc1 [Example 80, 6-(4-Fluoro-phenyl)-5-methyl-3-[3-(4-methyl-piperazin-1-yl)-phenyl]-pyrazolo[1,5-a]pyrimidin-7-ylamine] | 1 to 10 |
| Cc1nc2c(-c3cccc(N4CCN(C5CCN(C)CC5)CC4)c3)cnn2c(N)c1-c1cccc(Cl)c1 [Example 81, 6-(3-Chloro-phenyl)-5-methyl-3-{3-[4-(1-methyl-piperidin-4-yl)-piperazin-1-yl]-phenyl}-pyrazolo[1,5-a]pyrimidin-7-ylamine] | < 1 |
| Cc1nc2c(-c3cccc(N4CCN(C)CC4)c3)cnn2c(N)c1-c1ccc(F)c(Cl)c1 [Example 82, 6-(3-Chloro-4-fluoro-phenyl)-5-methyl-3-[3-(4-methyl-piperazin-1-yl)-phenyl]pyrazolo[1,5-a]pyrimidin-7-ylamine] | > 10 |
| Cc1nc2c(-c3ccc(N4CCN(C)CC4)cc3)cnn2c(N)c1-c1ccc(F)c(Cl)c1 [Example 83, 6-(3-Chloro-4-fluoro-phenyl)-5-methyl-3-[4-(4-methyl-piperazin-1-yl)-phenyl]-pyrazolo[1,5-a]pyrimidin-7-ylamine] | > 10 |
| Cc1nc2c(-c3cccc(N4CCN(C)CC4)c3)cnn2c(N)c1-c1cccc(Br)c1 [Example 84, 6-(3-Bromo-phenyl)-5-methyl-3-[3-(4-methyl-piperazin-1-yl)-phenyl]-pyrazolo[1,5-a]pyrimidin-7-ylamine] | 1 to 10 |
| CN1CCN(c2cccc(-c3cnn4c(N)c(Cc5cccc(Br)c5)cnc34)c2)CC1 [Example 85, 6-(3-Bromo-benzyl)-3-[3-(4-methyl-piperazin-1-yl)-phenyl]pyrazolo[1,5-a]pyrimidin-7-ylamine] | > 10 |
| CN1CCN(c2cccc(-c3cnn4c(N)c(-c5cccc(Br)c5)cnc34)c2)CC1 [Example 86, 6-(3-Bromo-phenyl)-3-[3-(4-methyl-piperazin-1-yl)-phenyl]-pyrazolo[1,5-a]pyrimidin-7-ylamine] | < 1 |
